Assays:
Luc expression = assay: ApoE dependence of luciferase expression (ApoE knockout vs. wild-type mice); assay type: in vivo; settings: 0.5 mpk, 6 h
From the text: FIG. 17 is a pair of graphs showing the ApoE dependence of luciferase (“Luc”) expression following administration of a composition containing Luc mRNA and Compound 4 to mice at a dose 0.5 mpk. The expression following administration of a composition containing Luc mRNA and MC3 is presented for comparison. […] The % change in Luc expression in livers of ApoE knockout vs. wild-type mice (i.e., (WT mean expression-KO mean expression)/WT mean expression]*100%) was 91.9% for Compound 4 and 97.5% for MC3. […] The % change in expression in spleens of ApoE knockout vs. wild-type mice was 4.34% for Compound 4 and 72.2% for MC3. Numbers 1-4 refer to the following: 1: Composition containing Compound 4, administered to ApoE knockout mice; 2: Composition containing Compound 4, administered to wild-type mice; 3: Composition containing MC3, administered to ApoE knockout mice; 4: Composition containing MC3, administered to wild-type mice.

LDL-c = assay: LDL levels in LDLr−/− mice after mRNA encoding the LDL receptor; assay type: in vivo, LDLR knockout mice; settings: Mus musculus; Table 7b; LDLr−/− mice, 0.5 mpk, LDLr; read-out: LDL levels lipid/untreated LDLr−/− mice 0.5 mpk, LDLr

CCCCCC=CCC=CCCCCCCCCC(CCCCCCCCC=CCC=CCCCCC)OC(=O)CCCN(C)C (stereo not drawn) [MC3, heptatriaconta-6,9,28,31-tetraen-19-yl 4-(dimethylamino)butanoate, reference compound]
% change in Luc expression in livers of ApoE knockout vs. wild-type mice (Luc expression; FIG. 17 Graph A, liver): 97.5% | % change in expression in spleens of ApoE knockout vs. wild-type mice (Luc expression; FIG. 17 Graph B, spleen): 72.2% | response vs control in vivo at 0.5 mg/kg (LDL-c): 55%
